Data reported in ChEMBL document CHEMBL4680155, “One-pot synthesis and molecular docking of some new spiropyranindol-2-one derivatives as immunomodulatory agents and in vitro antimicrobial potential with DNA gyrase inhibitor” (Eur J Med Chem, 2020).
In brackets after ≈: the same amount, converted by molar mass.

How the values were obtained:
[1] = test system: Staphylococcus aureus; test: Bactericidal activity against Staphylococcus aureus ATCC 33591 incubated for 24 hrs followed by transferring to freshly prepared broth medium and measured after 24 hrs by broth microdilution assay; format: functional; settings: time 48 hrs
[2] = test system: Salmonella typhimurium; test: Bactericidal activity against Salmonella typhi ATCC 6539 incubated for 24 hrs followed by transferring to freshly prepared broth medium and measured after 24 hrs by broth microdilution assay; format: functional, Salmonella enterica subsp. enterica serovar […]; settings: Salmonella enterica, time 48 hrs
[3] = test system: Candida albicans; test: Antifungal activity against Candida albicans ATCC 10231 assessed as reduction in bacterial growth incubated for 1 day by paper disk diffusion method; format: functional; settings: ATCC 10231, 24 h
[4] = test system: Staphylococcus aureus; test: Antibacterial activity against multidrug resistant Staphylococcus aureus ATCC 43300 assessed as reduction in bacterial growth incubated for 1 day by paper disk diffusion method; format: functional; settings: ATCC 43300, 24 h
[5] = test system: Aspergillus brasiliensis; test: Fungicidal activity against Aspergillus brasiliensis ATCC 16404 incubated for 72 hrs followed by transferring to freshly prepared broth medium and measured after 24 hrs by broth microdilution assay; format: functional; settings: time 96 hrs
[6] = test system: Enterococcus faecalis; test: Bactericidal activity against Enterococcus faecalis ATCC 29212 incubated for 24 hrs followed by transferring to freshly prepared broth medium and measured after 24 hrs by broth microdilution assay; format: functional; settings: time 48 hrs
[7] = test system: Candida albicans; test: Fungicidal activity against Candida albicans ATCC 10231 incubated for 24 hrs followed by transferring to freshly prepared broth medium and measured after 24 hrs by broth microdilution assay; format: functional; settings: time 48 hrs
[8] = test system: Staphylococcus aureus; test: Antibacterial activity against multidrug resistant Staphylococcus aureus ATCC 33591 assessed as diameter of inhibition zone at 0.5 mg/ml incubated for 24 hrs by agar diffusion method; format: functional; settings: read-out: DIZ
[9] = test system: Pseudomonas aeruginosa; test: Antibacterial activity against multidrug resistant Pseudomonas aeruginosa ATCC BAA-2111 assessed as reduction in bacterial growth incubated for 1 day by paper disk diffusion method; format: functional; settings: ATCC BAA-2111, 24 h
[10] = test system: Enterococcus faecalis; test: Antibacterial activity against Enterococcus faecalis ATCC 29212 assessed as diameter of inhibition zone at 0.5 mg/ml incubated for 24 hrs by agar diffusion method; format: functional; settings: read-out: DIZ
[11] = test system: Escherichia coli; test: Bactericidal activity against Escherichia coli ATCC 25922 incubated for 24 hrs followed by transferring to freshly prepared broth medium and measured after 24 hrs by broth microdilution assay; format: functional; settings: time 48 hrs
[12] = test system: Escherichia coli; test: Antibacterial activity against Escherichia coli ATCC 25922 assessed as diameter of inhibition zone at 0.5 mg/ml incubated for 24 hrs by agar diffusion method; format: functional; settings: read-out: DIZ
[13] = test system: Staphylococcus aureus; test: Bactericidal activity against Staphylococcus aureus ATCC 29213 incubated for 24 hrs followed by transferring to freshly prepared broth medium and measured after 24 hrs by broth microdilution assay; format: functional; settings: time 48 hrs
[14] = test system: Staphylococcus aureus; test: Antibacterial activity against Staphylococcus aureus ATCC 29213 assessed as reduction in bacterial growth incubated for 1 day by paper disk diffusion method; format: functional; settings: ATCC 29213, 24 h
[15] = test system: Staphylococcus aureus; test: Antibacterial activity against Staphylococcus aureus ATCC 29213 assessed as diameter of inhibition zone at 0.5 mg/ml incubated for 24 hrs by agar diffusion method; format: functional; settings: read-out: DIZ
[16] = test system: Escherichia coli; test: Antibacterial activity against multidrug resistant Escherichia coli ATCC BAA-196 assessed as diameter of inhibition zone at 0.5 mg/ml incubated for 24 hrs by agar diffusion method; format: functional; settings: read-out: DIZ
[17] = test system: Aspergillus brasiliensis; test: Antifungal activity against Aspergillus brasiliensis ATCC 16404 assessed as reduction in bacterial growth incubated for 3 days by paper disk diffusion method; format: functional; settings: ATCC 16404, 72 h, time 3 day
[18] = test system: Staphylococcus aureus; test: Antibacterial activity against multidrug resistant Staphylococcus aureus ATCC 33591 assessed as reduction in bacterial growth incubated for 1 day by paper disk diffusion method; format: functional; settings: ATCC 33591, 24 h
[19] = test system: Neutrophil; test: Immunomodulatory activity in human neutrophils infected with bacteria assessed as increase in bacterial killing by measuring reduced NBT incubated for 30 mins by NBT dye based spectrophotometry; format: functional; design: concentration or dose not given beside the values; settings: 0.5 h
[20] = test system: Escherichia coli; test: Antibacterial activity against Escherichia coli ATCC 25922 assessed as reduction in bacterial growth incubated for 1 day by paper disk diffusion method; format: functional; settings: ATCC 25922, 24 h
[21] = target: DNA gyrase (Staphylococcus aureus, UniProt P0A0K8+P20831); test: Inhibition of Staphylococcus aureus DNA gyrase using relaxed pBR322 DNA as substrate incubated for 45 mins by agarose gel electrophoresis method; format: protein-complex assay
DNA gyrase, sequence (P0A0K8 whole entry): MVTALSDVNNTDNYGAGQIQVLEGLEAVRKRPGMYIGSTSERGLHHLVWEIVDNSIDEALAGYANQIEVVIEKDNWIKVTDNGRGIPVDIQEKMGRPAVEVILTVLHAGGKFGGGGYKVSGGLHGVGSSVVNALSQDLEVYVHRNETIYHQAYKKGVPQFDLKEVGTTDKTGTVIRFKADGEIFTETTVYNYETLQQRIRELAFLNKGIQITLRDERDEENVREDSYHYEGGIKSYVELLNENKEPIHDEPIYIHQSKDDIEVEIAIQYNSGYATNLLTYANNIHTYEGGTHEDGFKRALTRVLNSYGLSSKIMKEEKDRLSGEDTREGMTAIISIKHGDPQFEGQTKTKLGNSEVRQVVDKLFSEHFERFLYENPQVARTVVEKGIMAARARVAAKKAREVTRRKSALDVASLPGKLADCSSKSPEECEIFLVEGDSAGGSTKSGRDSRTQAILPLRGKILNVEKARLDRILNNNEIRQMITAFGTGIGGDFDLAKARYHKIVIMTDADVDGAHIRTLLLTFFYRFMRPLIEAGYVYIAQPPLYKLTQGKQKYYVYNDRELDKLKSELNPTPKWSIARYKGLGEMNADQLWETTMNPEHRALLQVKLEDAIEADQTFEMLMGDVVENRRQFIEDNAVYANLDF
DNA gyrase, sequence (P20831 whole entry): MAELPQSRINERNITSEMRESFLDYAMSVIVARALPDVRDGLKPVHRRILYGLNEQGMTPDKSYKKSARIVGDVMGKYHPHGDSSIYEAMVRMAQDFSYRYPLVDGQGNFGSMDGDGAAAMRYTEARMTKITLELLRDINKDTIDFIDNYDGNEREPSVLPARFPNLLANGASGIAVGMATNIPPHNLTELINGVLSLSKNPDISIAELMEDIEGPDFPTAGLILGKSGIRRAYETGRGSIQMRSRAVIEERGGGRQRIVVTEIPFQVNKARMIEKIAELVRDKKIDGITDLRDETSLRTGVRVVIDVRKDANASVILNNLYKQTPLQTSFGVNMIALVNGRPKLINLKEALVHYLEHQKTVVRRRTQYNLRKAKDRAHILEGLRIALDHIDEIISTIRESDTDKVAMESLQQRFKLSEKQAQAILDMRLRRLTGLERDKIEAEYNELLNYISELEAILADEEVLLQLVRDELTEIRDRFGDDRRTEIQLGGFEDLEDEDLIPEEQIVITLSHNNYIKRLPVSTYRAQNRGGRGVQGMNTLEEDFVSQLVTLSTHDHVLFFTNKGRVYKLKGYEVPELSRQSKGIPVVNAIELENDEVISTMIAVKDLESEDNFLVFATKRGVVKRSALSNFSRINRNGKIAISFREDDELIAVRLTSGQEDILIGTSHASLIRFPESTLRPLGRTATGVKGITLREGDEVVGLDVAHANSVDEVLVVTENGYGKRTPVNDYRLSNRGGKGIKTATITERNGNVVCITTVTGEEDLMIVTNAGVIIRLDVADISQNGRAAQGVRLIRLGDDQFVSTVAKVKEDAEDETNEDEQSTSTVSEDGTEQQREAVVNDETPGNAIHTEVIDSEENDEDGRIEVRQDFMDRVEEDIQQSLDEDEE

[22] = test system: Pseudomonas aeruginosa; test: Bactericidal activity against Pseudomonas aeruginosa ATCC BAA-2111 incubated for 24 hrs followed by transferring to freshly prepared broth medium and measured after 24 hrs by broth microdilution assay; format: functional; settings: time 48 hrs
[23] = test system: Salmonella typhimurium; test: Antibacterial activity against Salmonella typhi ATCC 6539 assessed as reduction in bacterial growth incubated for 1 day by paper disk diffusion method; format: functional, Salmonella enterica subsp. enterica serovar Typhimurium; settings: Salmonella enterica, ATCC 6539, 24 h
[24] = test system: Escherichia coli; test: Antibacterial activity against multidrug resistant Escherichia coli ATCC BAA-196 assessed as reduction in bacterial growth incubated for 1 day by paper disk diffusion method; format: functional; settings: ATCC BAA-196, 24 h
[25] = test system: Salmonella typhimurium; test: Antibacterial activity against Salmonella typhi ATCC 6539 assessed as diameter of inhibition zone at 0.5 mg/ml incubated for 24 hrs by agar diffusion method; format: functional, Salmonella enterica subsp. enterica serovar Typhimurium; settings: Salmonella enterica, read-out: DIZ
[26] = test system: Escherichia coli; test: Bactericidal activity against Escherichia coli ATCC BAA-196 incubated for 24 hrs followed by transferring to freshly prepared broth medium and measured after 24 hrs by broth microdilution assay; format: functional; settings: time 48 hrs
[27] = test system: Aspergillus brasiliensis; test: Antifungal activity against Aspergillus brasiliensis ATCC 16404 assessed as diameter of inhibition zone at 0.5 mg/ml incubated for 72 hrs by agar diffusion method; format: functional; settings: read-out: DIZ
[28] = test system: Staphylococcus aureus; test: Bactericidal activity against Staphylococcus aureus ATCC 43300 incubated for 24 hrs followed by transferring to freshly prepared broth medium and measured after 24 hrs by broth microdilution assay; format: functional; settings: time 48 hrs
[29] = test system: Enterococcus faecalis; test: Antibacterial activity against Enterococcus faecalis ATCC 29212 assessed as reduction in bacterial growth incubated for 1 day by paper disk diffusion method; format: functional; settings: ATCC 29212, 24 h
[30] = test system: Candida albicans; test: Antifungal activity against Candida albicans ATCC 10231 assessed as diameter of inhibition zone at 0.5 mg/ml incubated for 24 hrs by agar diffusion method; format: functional; settings: read-out: DIZ
[31] = test system: Pseudomonas aeruginosa; test: Antibacterial activity against multidrug resistant Pseudomonas aeruginosa ATCC BAA-2111 assessed as diameter of inhibition zone at 0.5 mg/ml incubated for 24 hrs by agar diffusion method; format: functional; settings: read-out: DIZ
[32] = test system: Staphylococcus aureus; test: Antibacterial activity against multidrug resistant Staphylococcus aureus ATCC 43300 assessed as diameter of inhibition zone at 0.5 mg/ml incubated for 24 hrs by agar diffusion method; format: functional; settings: read-out: DIZ

| SMILES | MBC [1] [µg/mL] | MBC [2] [µg/mL] | MIC [3] [µg/mL] | MIC [4] [µg/mL] | MFC [5] [µg/mL] | MBC [6] [µg/mL] | MFC [7] [µg/mL] | zone of inhibition at 500 µg/mL [8] [mm] | MIC [9] [µg/mL] | zone of inhibition at 500 µg/mL [10] [mm] | MBC [11] [µg/mL] | zone of inhibition at 500 µg/mL [12] [mm] | MBC [13] [µg/mL] | MIC [14] [µg/mL] | zone of inhibition at 500 µg/mL [15] [mm] | zone of inhibition at 500 µg/mL [16] [mm] | MIC [17] [µg/mL] | MIC [18] [µg/mL] | Activity [19] [%] | MIC [20] [µg/mL] | also measured |
| --- | --- | --- | --- | --- | --- | --- | --- | --- | --- | --- | --- | --- | --- | --- | --- | --- | --- | --- | --- | --- | --- |
| CCOC(=O)C1=C(N)OC(c2ccccc2)=C(C(C)=O)C12C(=O)Nc1ccc(S(=O)(=O)N3CCOCC3)cc12 (centres undefined) | 7.8 (≈ 14.1 µM) | 49.8 (≈ 89.9 µM) | 17.8 (≈ 32.1 µM) | 3.9 (≈ 7.04 µM) | 71.1 (≈ 128 µM) | 25 (≈ 45.2 µM) | 24.9 (≈ 44.9 µM) | 24 | 2.6 (≈ 4.7 µM) | 25 | 12.5 (≈ 22.6 µM) | 25 | 81.2 (≈ 147 µM) | 62.5 (≈ 113 µM) | 23 | 24 | 35.5 (≈ 64.2 µM) | 3.9 (≈ 7.04 µM) | 95.6 | 6.25 (≈ 11.3 µM) | IC50 [21]: 20.1 µM; MBC [22]: 5.2 µg/mL (≈ 9.39 µM); MIC [23]: 35.5 µg/mL (≈ 64.2 µM); MIC [24]: 3.9 µg/mL (≈ 7.04 µM); zone of inhibition at 500 µg/mL [25]: 23 mm; MBC [26]: 6.24 µg/mL (≈ 11.3 µM); zone of inhibition at 500 µg/mL [27]: 21 mm; MBC [28]: 7.8 µg/mL (≈ 14.1 µM); MIC [29]: 12.5 µg/mL (≈ 22.6 µM); zone of inhibition at 500 µg/mL [30]: 24 mm; zone of inhibition at 500 µg/mL [31]: 25 mm; zone of inhibition at 500 µg/mL [32]: 23 mm |
| CCOC(=O)C1=C(N)OC(c2ccccc2)=C(C(=O)OCC)C12C(=O)Nc1ccc(S(=O)(=O)N3CCCCC3)cc12 (centres undefined) | 9.37 (≈ 16.1 µM) | 21.9 (≈ 37.6 µM) | 15.6 (≈ 26.9 µM) | 6.25 (≈ 10.7 µM) | 115 (≈ 197 µM) | 15.6 (≈ 26.9 µM) | 21.9 (≈ 37.6 µM) | 22 | 5.2 (≈ 8.94 µM) | 22 | 11.5 (≈ 19.8 µM) | 23 | 150 (≈ 258 µM) | 88.3 (≈ 152 µM) | 21 | 23 | 71.8 (≈ 123 µM) | 6.25 (≈ 10.7 µM) | 139.3 | 8.88 (≈ 15.3 µM) | IC50 [21]: 23.2 µM; MBC [22]: 8.84 µg/mL (≈ 15.2 µM); MIC [23]: 15.6 µg/mL (≈ 26.9 µM); MIC [24]: 4.44 µg/mL (≈ 7.63 µM); zone of inhibition at 500 µg/mL [25]: 21 mm; MBC [26]: 5.32 µg/mL (≈ 9.15 µM); zone of inhibition at 500 µg/mL [27]: 17 mm; MBC [28]: 10 µg/mL (≈ 17.2 µM); MIC [29]: 7.81 µg/mL (≈ 13.4 µM); zone of inhibition at 500 µg/mL [30]: 21 mm; zone of inhibition at 500 µg/mL [31]: 22 mm; zone of inhibition at 500 µg/mL [32]: 22 mm |
